Data set [1] relates to phenylbenzquinone (PBQ) writhing. Nature of the data set: Inhibition of phenylbenzquinone (PBQ) writhing in mice. It is filed as in vivo, mice (C.B.L., CD1). The note with it: Mus musculus, oral, PBQ 2.0 mg/kg i.p. As to the method: b. Inhibition of phenylbenzquinone (PBQ) writhing in mice:
Groups of 10 male mice (C.B.L., CD1, 18-22 grams) were food deprived overnight prior to the experiments. Test substances, suspended or dissolved in 1% methylcellulose, were administered orally (0.1 ml/10 grams body weight) at various times prior to administration of PBQ (2.0 mg/kg i.p.). The mice were placed in individual boxes and observed for 10 minutes (5 to 15 minutes after PBQ). The number of "writhes" (abdominal contraction, lordosis and hindlimb extension) for each animal was recorded and the group means and standard errors were calculated. The means obtained from drug treated groups were compared with the vehicle control mean values and percent inhibition of writhing was calculated as follows: [formula]

Data set [2] is described as follows: in vivo. Further details: species or system Rats (Sprague-Dawley). Conditions: rat, po. As to the method: The GHLF test is conducted according to the following procedure:
Rats (Sprague-Dawley, Males, 120-180 gm) were fasted overnight and dosed orally with drug suspended in 0.5% methylcellulose. The drug concentration was adjusted so that each animal received 1.0 ml/100 gm body weight. Four hours later the animals were killed by asphixiation in carbon dioxide, the stomachs removed, cut open and everted. The mucosal lining was washed and examined under 3X magnification. The lesions are indentified as perforations of the gastric mucosa many of which perforate right through the wall of the stomach.
The results are expressed in two ways, the average number of lesions per stomach, and the number of animals in the group showing at least one lesion.

Data set [3] deals with adjuvant arthritis. Description: Rat adjuvant arthritis test (adjuvant). Format: in vivo. The note with it: for ED50: rat adjuvant arthritis. The source says: c. Rat adjuvant arthritis test (adjuvant)
The test was done in accordance with procedures well-known in the art (see: C. A. Winter, Arthr. Rheum 9, 394-404 (1966).

The source of these data is patent US4511724A, “5-(Pyrrol-2-oyl)-1,2-dihydro-3H-pyrrolo [1,2-a]pyrrole derivatives as anti-inflammatory and analgesic agents” (Merck & Co., Inc., priority 1982, dated 1985).

By ED50 is commonly meant the dose that gives a 50% effect, or the effect in half of the subjects.

Consider `CCOC(=O)C1CCn2c1cc(C)c2C(=O)c1cccn1C` (centres unmarked) [Prior Art Compound, reference compound], for which the ED50 in data set [1] amounted to 1 mg/kg; in data set [3] it was 30 mg/kg. The molecule also registered a TD50 at 4 h in data set [2] of 10 mg/kg. The “protection from bone and cartilage destruction” value in data set [3] (at 30 mg/kg) is “No protection”.

Consider `CCOC(=O)C1CCn2c1cc(C)c2C(=O)c1ccc(SC)n1C` (centres unmarked) [RZ = CH3 S, R^4 = C2 H5, ethyl 5-(1-methyl-5-methylthio-2-pyrroyl)-1,2-dihydro-6-methyl-3H-pyrrolo-[1,2-a]pyrrole-1-carboxylate], for which the figures for the median effective dose (ED50) in data set [1] and in data set [3] were 0.17 mg/kg and 7.5 mg/kg, respectively. The TD50 at 4 h in data set [2] was 90 mg/kg. Further, in data set [3] (at 10 mg/kg), the “protection from bone and cartilage destruction” value is “Protection”.

`CSc1ccc(C(=O)c2c(C)cc3n2CCC3C(=O)O)n1C` (centres unmarked) [RZ = CH3 S, R^4 = H, 5-(1-methyl-5-methylthio-2-pyrroyl)-1,2-dihydro-6-methyl-3H-pyrrolo-[1,2-a]pyrrole-1-carboxylic acid] came in with a TD50 at 4 h in data set [2] of 15 mg/kg.

For `Cc1cc2n(c1C(=O)c1ccc(Cl)n1C)CCC2C(=O)O` (centres unmarked) [RZ = Cl, R^4 = H, 5-(1-methyl-5-chloro-2-pyrroyl)-1,2-dihydro-6-methyl-3H-pyrrolo[1,2-a]pyrrole-1-carboxylic acid], in data set [1], the ED50 worked out at 2.1 mg/kg. Further, in data set [2], the TD50 at 4 h came to 15 mg/kg.
